Experiments:
Human melanoma cells M21 = assay: M21 melanoma cell adhesion to denatured collagen type-IV (Example 2); type: cell-based; details: M21 cells on denatured collagen type-IV; peptide 250 μg/ml
Excerpt: FIG. 1 is a chart which illustrates M21 human melanoma cell adhesion to untreated denatured type-IV collagen (NT), CLK-peptide treated denatured collagen type-IV, SLK-peptide treated denatured collagen type-IV, and SDR-peptide treated denatured collagen type-IV.
SLK peptides bind to functional epitopes within denatured collagen type-IV that regulate cellular adhesion. Non-tissue culture treated 48-well plates were coated with denatured collagen type-IV. Human melanoma cells M21 (Scripps Research Institute, La Jolla, Calif.) were allowed to attach to the coated wells in the presence or absence of the synthetic peptides CLK, SLK, and SDR, each peptide was at a concentration of 250 μg/ml. SDR peptide is a commercially available peptide that was used as a control (QED Bioscience, Inc., San Diego, Calif.).
Human denatured collagen type-IV (25 μg/ml) was immobilized on 48-well nontissue culture treated plates. Wells were washed and incubated with 1% BSA (bovine serum albumin) in PBS (phosphate-buffered saline) for one hour at 37° C. Subconfluent […] were harvested, washed, and resuspended in adhesion buffer containing RPMI-1640 medium, 1 mM MgCl2, 0.2 mM MnCl2, and 0.5% BSA. […] Cell adhesion was quantified by measuring the optical density of eluted crystal violet at a wavelength of 600 nm.

[1] = tested on: denatured collagen type-IV; assay: Competition ELISA, mAb HUIV26 or HUI77 binding to denatured collagen with or without CLK-peptide (Example 16); details: collagen coated at 10 μg/ml; 1:1 ratio
Method: FIG. 17 CLK-Peptide Binds to the HUI77 Cryptic Collagen Epitope. To examine the epitope bound by CLK, competition ELISAs were carried out. Microtiter wells were coated with denatured collagen type-IV (10 μg/ml), and mAb HUIV26 or HUI77 were allowed to bind the denatured collagen in the presence or absence of CLK-peptide.
ELISAs were performed to examine the binding specificity of CLK-Peptide. Denatured type-IV collagen (10 μg/ml) was coated on microtiter wells and CLK-peptide allowed to bind in the presence or absence of Mab HUI77 or Mab HUIV26 at a 1:1 ratio. HRP-labeled goat anti-mouse secondary antibodies were used to detect murine Mabs HUI77 and HUIV26, directed to distinct cryptic epitope within collagen type-IV, and the O.D. at 490 nm measured.

P27KIP1 = P27KIP1 expression by Western blot in tumor cells on denatured collagen; type: cell-based, murine; details: 24 hours
Method: FIG. 11 Inhibition of Cellular Interactions by CLK-Peptide Enhances Expression of P27KIP1. […] A. Treatment of B16F10 melanoma cells. B. Treatment of GL261 glioblastoma cells.
To determine whether the effect on inhibition of tumor proliferation and invasion in vivo differs in malignant tumors and normal tissue, the effect of CLK-peptide on gene expression was analyzed. Genes that regulate cell cycle control, including Cyclin Dependent Kinase (CDK) inhibitors known to regulate cellular proliferation, were studied. Tumor cells (B16F10 melanoma and GL261 glioblastoma) were resuspended in adhesion buffer in the presence or absence of CLK-peptide or control. Cells were added to culture plates coated with denatured collagen and allowed to incubate for 24 hours. Total cell lysates were prepared and the relative levels of the CDK inhibitor P27^KIP1 was examined by Western Blot analysis.

[2] = tested on: denatured collagen type-IV; assay: Competition ELISA, mAb HUIV26 binding to denatured collagen type-IV with or without CLK-peptide; details: HUIV26 1 μg/ml; CLK-peptide 100 μg/ml; 2 hours 37° C.
Method: FIG. 14 Inhibition of Binding of Labeled CLK-Peptide to Denatured Collagen Type-IV by mAbs HUI77. To examine the binding specificity of the synthetic CLK-Peptide, the peptide was labeled and solid phase ELISAs were performed. Denatured collagen type-IV (10 μg/ml) was coated on microtiter wells and binding of either HRP-labeled CLK-Peptide or mAbs (mAbs HUI77 or HUIV26) was measured by ELISA at a wavelength of 490 nm. […] B. MAb HUIV26 was allowed to bind the denatured collagen in the presence or absence of CLK-Peptide.
Microtiter wells were coated with denatured collagen type-IV (1 μg/ml) overnight at 4° C., and the plates blocked with 1% BSA for 1 hour at 37° C. HUIV26 was added at 1 μg/ml and allowed to bind the denatured collagen in the presence or absence of 100 μg/ml CLK-peptide for 2 hours at 37° C. Labeled goat-anti-mouse antibody was added at 1:3000 and incubation was allowed for 1 hour at 37° C. Color solution, then a stopping solution of 4N sulfuric acid, were added and binding was quantified by measuring the O.D. at 490 nm. […] Similar results were obtained over a wide range of peptide and antibody concentrations (1 to 100 μg/ml) (data not shown).

[3] = tested on: Human endothelial cells (HUVECs); assay: Endothelial cord formation in MATRIGEL; type: cell-based; details: 0 to 100 μg/ml, 24 hours
Method: FIG. 6 Effects of CLK Peptide on HUVEC Cord Formation in MATRIGEL®. MATRIGEL was added to 96-well plates and allowed to form three-dimensional gels. […] Representative photos were taken at a magnification of 100×. A. Untreated control. B. CLK 25 μg/ml. C. CLK 50 μg/ml. D. CLK 100 μg/ml. E. Control Peptide 100 μg/ml.
The role that the CLK cryptic collagen epitope plays in regulating endothelial cell morphogenesis and cord formation, processes important in angiogenesis, were investigated. MATRIGEL was diluted in M199 medium and 300 μl were added to the wells of a 48-well culture plate and allowed to polymerize. […] Endothelial morphogenesis and cord formation was monitored with an inverted microscope fitted with a 35 mm camera to document cord formation.

[4] = tested on: Metastatic B16 murine melanoma cells; assay: B16 melanoma cell adhesion to native or denatured collagen type-IV (Example 3); type: cell-based
Excerpt: FIG. 2 is a chart which illustrates B16 murine melanoma cell adhesion to untreated denatured collagen type-IV (NT), CLK-peptide treated denatured collagen type-IV, and SHR-peptide treated denatured collagen type-IV.
Non-tissue culture treated 48-well plates were coated with either native (triple helical) or denatured collagen type-IV. Metastatic B16 murine melanoma cells were allowed to attach to the coated wells in the presence or absence of either CLK or SHR (control) peptide. CLK-peptide blockade of B16 cell adhesion to denatured type-IV collagen exceeded 95% (FIG. 2). CLK-peptide had little effect on B16 melanoma cell adhesion to native collagen type-IV.

H-CLKQNGGNFSLG-OH [CLK-peptide, NH2-C-L-K-Q-N-G-G-N-F-S-L-G-COOH]
blockade of melanoma cell adhesion (Human melanoma cells M21): exceeded 95%
blocking of mAb HUI77 binding to denatured collagen [1]: significantly blocked
blocking of mAb HUIV26 binding to denatured collagen [1]: did not block
P27KIP1 level (P27KIP1; B16F10 melanoma cells on denatured collagen): dramatic upregulation
P27KIP1 level (P27KIP1; GL261 glioblastoma cells on denatured collagen): dramatic upregulation
blocking of mAb HUIV26 binding to denatured collagen type-IV [2]: did not block
effect on endothelial cord formation [3]: dose-dependently inhibited
blockade of B16 cell adhesion to denatured type-IV collagen ([4]; wells coated with denatured collagen type-IV): exceeded 95%
effect on B16 melanoma cell adhesion to native collagen type-IV ([4]; wells coated with native (triple helical) collagen type-IV): little effect
